Where a SMILES comes first, the peptide text is derived from it. Bridges are numbered along the chain shown (N, C = ends). [ ]: non-standard residue; d: D form. dDap = NC[C@@H](N)C(=O)O; Dap = NC[C@H](N)C(=O)O
Biological target: L. monocytogenes AgrC (Listeria monocytogenes serovar 1/2a, UniProt Q8YAR5)
Test: Fluorescence (agr-GFP) reporter agonism assay, ΔagrD reporter strain
Format: cell-based
Parameters: Emax: dose or concentration left out as unconfirmed
Conditions: for Emax: read-out: Max Activation Observed; for agonism activity (in words): ΔagrD reporter; for loss in potency: agonism, relative to native AIP
Text: Construction of Listeria agr Reporter Strains. A gene block was designed and purchased from Integrated DNA Technologies to contain an EagI recognition site, the PII promoter of the agr system, the 3′ UTR of hly, super folder GFP, and a SaII recognition site. The gene block was digested with EagI and SaII, cloned into an EagI/SaII-cut pAM401 plasmid resulting in the plasmid pAM401-KW1, and then transformed into E. coli XL1-Blue competent cells. The insertion into pAM401 was confirmed using Kapa polymerase and primers DAP337 and DAP338, and additional confirmation via commercial sequencing. Purified plasmid was transformed into the conjugative E. coli S17 strain, which was used to conjugate to EGD-e and EGD-e ΔagrD to generate the agr-GFP reporter strains EGD-e:pAM401-KW1 and EGD-e ΔagrD:pAM401-KW1. Conjugation was verified using primers DAP337 and DAP338.
Fluorescence reporter assay protocol. For QS (agr) reporter assays, peptide stock solutions in DMSO (1 mM) were serially diluted in DMSO, and 2 μL of solution was added to each well in a black 96-well plate (polystyrene microtiter plate, Costar). Agonism assays utilized the ΔagrD reporter strain, with 2 μL of 100 μM AIP (final concentration 1 μM) as a positive control and 2 μL of DMSO as a negative control. Antagonism assays utilized the EGD-e reporter strain, with 2 μL of DMSO as a positive control. In both assays, wells containing only BHI media served as negative controls for normalization. An overnight culture of bacteria was diluted 1:50 in fresh BHI, then 198 μL were transferred to each well (excluding the media control wells). Plates were then incubated at 37° C. for 24 hours with shaking at 200 rpm. Fluorescence of GFP (excitation at 500 nm, emission at 540 nm) and OD600 of each well was measured using BioTek Synergy 2 plate reader. Measurements were processed by subtracting background fluorescence (BHI media), correcting by OD600, and the normalizing using the 1 μM AIP or the DMSO control for the agonism and antagonism assays, respectively. Non-linear regression curves were fitted to the data sets in GraphPad Prism 7 by using variable slope (four-parameter) dose-response analysis to obtain potency, efficacy, and statistical information about the activity of tested peptides. Each peptide was tested with three technical replicates and three biological replicates. All data derived from fluorescent reporter strains are represented with data points signifying the mean and error bars signifying the standard deviation from all replicates.
Preparation and Validation of Listeria agr Reporter Strains. In order to facilitate profiling the native AIP and its analogs for agr activity, L. monocytogenes agr GFP reporters were designed and constructed as described above (see Materials and General Methods). Briefly, a plasmid containing the agr promoter region upstream of gfp was transformed into wild-type (EGD-e) and ΔagrD L. monocytogenes strains. The wild-type reporter naturally produces its own AIP and is able to activate AgrC, which may subsequently phosphorylate AgrA for productive binding to DNA and triggering the production of GFP (FIG. 1A). The ΔagrD reporter, lacking the ability to produce its own AIP and thereby activate AgrC, is unable to trigger substantial production of GFP. However, adding exogenous AIP to the ΔagrD reporter results in an increase of fluorescence, indicating agr activity has been restored.

Chain of L. monocytogenes AgrC (Q8YAR5 entry or part of it): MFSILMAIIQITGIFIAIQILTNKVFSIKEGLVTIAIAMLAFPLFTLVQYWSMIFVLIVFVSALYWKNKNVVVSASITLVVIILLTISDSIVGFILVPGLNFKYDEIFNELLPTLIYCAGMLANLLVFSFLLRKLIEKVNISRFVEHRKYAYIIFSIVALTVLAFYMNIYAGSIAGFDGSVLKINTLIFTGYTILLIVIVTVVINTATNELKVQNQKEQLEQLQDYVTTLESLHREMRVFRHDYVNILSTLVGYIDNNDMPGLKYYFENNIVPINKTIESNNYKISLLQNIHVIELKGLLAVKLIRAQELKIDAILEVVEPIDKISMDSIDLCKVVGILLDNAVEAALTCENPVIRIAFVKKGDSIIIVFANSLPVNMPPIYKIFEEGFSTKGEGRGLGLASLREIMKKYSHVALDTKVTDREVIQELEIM

| SMILES | Emax | agonism activity (in words) | loss in potency |
| --- | --- | --- | --- |
| CSCC[C@@H]1NC(=O)[C@H](Cc2ccccc2)NC(=O)[C@@H](NC(=O)[C@H](CCCCN)NC(=O)[C@@H](N)CCCCN)CSC(=O)[C@H](C(C)C)NC(=O)[C@H](Cc2ccccc2)NC1=O [7-mer A2K, K-K-(C-F-M-F-V)] (H-KKCFMFV; thioester 3-C; N-terminus assumed) | 64.8% | – | – |
| CSCC[C@@H]1NC(=O)[C@H](Cc2ccccc2)NC(=O)[C@H](NC(=O)[C@H](C)NC(=O)[C@@H](N)CCCCN)CSC(=O)[C@H](C(C)C)NC(=O)[C@H](Cc2ccccc2)NC1=O [7-mer C3dC, K-A-(dC-F-M-F-V)] (H-KA[dC]FMFV; thioester 3-C; N-terminus assumed) | 7.08% | – | – |
| CSCC[C@H]1NC(=O)[C@H](Cc2ccccc2)NC(=O)[C@H](NC(=O)[C@H](C)NC(=O)[C@@H](N)CCCCN)CSC(=O)[C@H](C(C)C)NC(=O)[C@H](Cc2ccccc2)NC1=O [7-mer C3dC/M5dM, K-A-(dC-F-dM-F-V)] (H-KA[dC]F[dM]FV; thioester 3-C; N-terminus assumed) | 7.89% | – | – |
| CSCC[C@H]1NC(=O)[C@H](Cc2ccccc2)NC(=O)[C@@H](NC(=O)[C@H](C)NC(=O)[C@@H](N)CCCCN)CSC(=O)[C@H](C(C)C)NC(=O)[C@H](Cc2ccccc2)NC1=O [7-mer M5dM, K-A-(C-F-dM-F-V)] (H-KACF[dM]FV; thioester 3-C; N-terminus assumed) | 71.9% | – | – |
| CSCC[C@@H]1NC(=O)[C@H](Cc2ccccc2)NC(=O)[C@@H](NC(=O)[C@@H](N)CCCCN)CSC(=O)[C@H](C(C)C)NC(=O)[C@H](Cc2ccccc2)NC1=O [AIP A1K, K-(C-F-M-F-V)] (H-KCFMFV; thioester 2-C; N-terminus assumed) | 80% | partial agonists with slightly diminished agonistic activity | – |
| CSCC[C@@H]1NC(=O)[C@H](Cc2ccccc2)NC(=O)[C@H](NC(=O)[C@@H](N)CCCCN)CSC(=O)[C@H](C(C)C)NC(=O)[C@H](Cc2ccccc2)NC1=O [AIP A1K/C2dC, K-(dC-F-M-F-V)] (H-K[dC]FMFV; thioester 2-C; N-terminus assumed) | 10.2% | – | – |
| CSCC[C@H]1NC(=O)[C@H](Cc2ccccc2)NC(=O)[C@@H](NC(=O)[C@@H](N)CCCCN)CSC(=O)[C@H](C(C)C)NC(=O)[C@H](Cc2ccccc2)NC1=O [AIP A1K/M4dM, K-(C-F-dM-F-V)] (H-KCF[dM]FV; thioester 2-C; N-terminus assumed) | 74.1% | – | – |
| CSCC[C@@H]1NC(=O)[C@H](Cc2ccccc2)NC(=O)[C@@H](NC(=O)[C@@H]2CCCN2)CSC(=O)[C@H](C(C)C)NC(=O)[C@H](Cc2ccccc2)NC1=O [AIP A1P, P-(C-F-M-F-V)] (H-PCFMFV; thioester 2-C; N-terminus assumed) | 76.8% | partial agonists with slightly diminished agonistic activity | – |
| CSCC[C@@H]1NC(=O)[C@H](Cc2ccccc2)NC(=O)[C@@H](NC(=O)[C@@H](N)[C@@H](C)O)CSC(=O)[C@H](C(C)C)NC(=O)[C@H](Cc2ccccc2)NC1=O [AIP A1T, T-(C-F-M-F-V)] (H-TCFMFV; thioester 2-C; N-terminus assumed) | 88.1% | partial agonists with slightly diminished agonistic activity | – |
| CSCC[C@@H]1NC(=O)[C@H](Cc2ccccc2)NC(=O)[C@@H](NC(=O)[C@@H](N)C(C)C)CSC(=O)[C@H](C(C)C)NC(=O)[C@H](Cc2ccccc2)NC1=O [AIP A1V, V-(C-F-M-F-V)] (H-VCFMFV; thioester 2-C; N-terminus assumed) | 109% | maintained the full activity of the parent AIP with enhanced potency | – |
| CSCC[C@@H]1NC(=O)[C@H](Cc2ccccc2)NC(=O)[C@@H](NC(=O)[C@@H](C)N)CSC(=O)[C@H](C(C)C)NC(=O)[C@H](Cc2ccccc2)NC1=O [AIP A1dA, dA-(C-F-M-F-V)] (H-[dA]CFMFV; thioester 2-C; N-terminus assumed) | 58.8% | – | – |
| CSCC[C@@H]1NC(=O)[C@H](Cc2ccccc2)NC(=O)[C@@H](NC(=O)[C@H](C)N)CNC(=O)[C@H](C(C)C)NC(=O)[C@H](Cc2ccccc2)NC1=O [AIP C2Dap, A-(Dap-F-M-F-V)] (H-A[Dap]FMFV; lactam 2-C; N-terminus assumed) | 92.9% | largely retains the activation activity of the native AIP | 10 fold |
| CSCC[C@@H]1NC(=O)[C@H](Cc2ccccc2)NC(=O)[C@H](NC(=O)[C@H](C)N)CSC(=O)[C@H](C(C)C)NC(=O)[C@H](Cc2ccccc2)NC1=O [AIP C2dC, A-(dC-F-M-F-V)] (H-A[dC]FMFV; thioester 2-C; N-terminus assumed) | 41% | lost a substantial amount of agonism activity | three-fold |
| CSCC[C@H]1NC(=O)[C@H](Cc2ccccc2)NC(=O)[C@H](NC(=O)[C@H](C)N)CSC(=O)[C@H](C(C)C)NC(=O)[C@H](Cc2ccccc2)NC1=O [AIP C2dC/M4dM, A-(dC-F-dM-F-V)] (H-A[dC]F[dM]FV; thioester 2-C; N-terminus assumed) | 35.7% | – | – |
| CSCC[C@@H]1NC(=O)[C@H](Cc2ccccc2)NC(=O)[C@H](NC(=O)[C@H](C)N)CNC(=O)[C@H](C(C)C)NC(=O)[C@H](Cc2ccccc2)NC1=O [AIP C2dDap, A-(Dap-F-M-F-V)] (H-A[dDap]FMFV; lactam 2-C; N-terminus assumed) | 14.3% | little or no agr activation | – |
| CSCC[C@@H]1NC(=O)[C@H](Cc2c[nH]cn2)NC(=O)[C@@H](NC(=O)[C@H](C)N)CSC(=O)[C@H](C(C)C)NC(=O)[C@H](Cc2ccccc2)NC1=O [AIP F3H, A-(C-H-M-F-V)] (H-ACHMFV; thioester 2-C; N-terminus assumed) | 12.4% | – | – |
| CSCC[C@@H]1NC(=O)[C@H](CC(C)C)NC(=O)[C@@H](NC(=O)[C@H](C)N)CSC(=O)[C@H](C(C)C)NC(=O)[C@H](Cc2ccccc2)NC1=O [AIP F3L, A-(C-L-M-F-V)] (H-ACLMFV; thioester 2-C; N-terminus assumed) | 37.6% | – | – |
| CSCC[C@@H]1NC(=O)[C@H](Cc2c[nH]c3ccccc23)NC(=O)[C@@H](NC(=O)[C@H](C)N)CSC(=O)[C@H](C(C)C)NC(=O)[C@H](Cc2ccccc2)NC1=O [AIP F3W, A-(C-W-M-F-V)] (H-ACWMFV; thioester 2-C; N-terminus assumed) | 60.6% | – | – |
| CSCC[C@@H]1NC(=O)[C@H](Cc2ccc(O)cc2)NC(=O)[C@@H](NC(=O)[C@H](C)N)CSC(=O)[C@H](C(C)C)NC(=O)[C@H](Cc2ccccc2)NC1=O [AIP F3Y, A-(C-Y-M-F-V)] (H-ACYMFV; thioester 2-C; N-terminus assumed) | 47.4% | – | – |
| CSCC[C@@H]1NC(=O)[C@H](Cc2ccccc2)NC(=O)[C@@H](NC(=O)[C@H](C)N)CSC(=O)[C@H](C(C)C)NC(=O)[C@H](Cc2c[nH]cn2)NC1=O [AIP F5H, A-(C-F-M-H-V)] (H-ACFMHV; thioester 2-C; N-terminus assumed) | 7.13% | – | – |
| CSCC[C@@H]1NC(=O)[C@H](Cc2ccccc2)NC(=O)[C@@H](NC(=O)[C@H](C)N)CSC(=O)[C@H](C(C)C)NC(=O)[C@H](CC(C)C)NC1=O [AIP F5L, A-(C-F-M-L-V)] (H-ACFMLV; thioester 2-C; N-terminus assumed) | 64.8% | – | – |
| CSCC[C@@H]1NC(=O)[C@H](Cc2ccccc2)NC(=O)[C@@H](NC(=O)[C@H](C)N)CSC(=O)[C@H](C(C)C)NC(=O)[C@H](Cc2c[nH]c3ccccc23)NC1=O [AIP F5W, A-(C-F-M-W-V)] (H-ACFMWV; thioester 2-C; N-terminus assumed) | 85.8% | – | – |
| CSCC[C@@H]1NC(=O)[C@H](Cc2ccccc2)NC(=O)[C@@H](NC(=O)[C@H](C)N)CSC(=O)[C@H](C(C)C)NC(=O)[C@H](Cc2ccc(O)cc2)NC1=O [AIP F5Y, A-(C-F-M-Y-V)] (H-ACFMYV; thioester 2-C; N-terminus assumed) | 44.4% | – | – |

Source: patent US12116424B2, “Compounds and compositions for modulating Listeria virulence” (priority 2021, dated 2024)
